Data taken from US9498477B2, “Compositions and uses thereof to ameliorate pain” (Purdue Research Foundation, priority 2011, dated 2016).

Columns and labels:
[1] = test system: Sprague Dawley rats models of spinal contusion injury; conditions: chronic SCI (5 months), single intraperitoneal dose 5 mg/kg body weight
Excerpt: (§1) Spinal contusion injury. Sprague Dawley rats are subjected to a spinal contusion injury according to the procedure described by Basso et al., Graded histological and locomotor outcomes after spinal cord contusion using the NYU weight-drop device versus transaction, Exp Neurol. […] After 20 weeks, the animals are divided into untreated injury and treated injury groups, each of which is compared to an uninjured control.
Test compound treatment. A solution of test compound, such as hydralazine hydrochloride (Sigma), is prepared with phosphate buffered saline. The solution is sterilized through a filter and stored at 4° C. […] Untreated animals are administered saline vehicle intraperitoneally. Blood pressures are monitored using a CODA 2 system (Kent Scientific Corp.).
Cold allodynia evaluation. Sprague Dawley rats models of spinal contusion injury are divided into untreated injury and treated injury groups. The untreated injury groups are injected daily with vehicle as described herein. The treated injury groups are injected daily with test compound as described herein. Uninjured controls, untreated injury groups, and treated injury groups are evaluated for pain according to the procedure described by Choi et al., Behavioral signs of ongoing pain and cold allodynia in a rat model of neuropathic pain, Pain 59:369-376 (1994).

[2] = test system: Sprague Dawley rats models of spinal contusion injury; conditions: chronic SCI (5 months), single intraperitoneal dose 5 mg/kg body weight; remark: listed apart in the source
Excerpt: as §1
Test compound treatment. […] The solution is sterilized through a filter and stored at 4° C. […] Untreated animals are administered saline vehicle intraperitoneally. Blood pressures are monitored using a CODA 2 system (Kent Scientific Corp.).
Mechanical allodynia evaluation. Sprague Dawley rats models of spinal contusion injury are divided into untreated injury and treated injury groups. The untreated injury groups are injected daily with vehicle as described herein. The treated injury groups are injected daily with test compound as described herein. Uninjured controls, untreated injury groups, and treated injury groups are evaluated for pain according to the procedure described by Choi et al., Behavioral signs of ongoing pain and cold allodynia in a rat model of neuropathic pain, Pain 59:369-376 (1994).

## NNc1nncc2ccccc12 [hydralazine]
[1]
  time to improvement of cold-induced pain after the injection: ≤ 2 h
[1]; FIG. 2 panel B
  duration of efficacy of the treatment, cold allodynia: at least 10 days
[2]
  time to improvement of mechanical allodynia after the injection: ≤ 2 days
[2]; FIG. 2 panel A
  duration of efficacy of the treatment, mechanical allodynia: at least 10 days
